The source of these data is patent US10526347B2, “3-(3H-imidazo[4,5-B]pyridin-2-yl)-1H-pyrazolo[3,4-B]pyridine and therapeutic uses thereof” (Samumed, LLC, priority 2014, dated 2020).

As a reminder, the IC50 is the midpoint of a concentration-inhibition curve. Low values mean higher potency, high ones lower potency. The EC50 is the concentration that produces a half-maximal response.

Assay type in all cases: cell-based
Assay [1] relates to primary human mesenchymal stem cells (hMSCs). As to the kind of experiment: Chondrogenesis induction in primary human mesenchymal stem cells (chondrogenic nodules, Rhodamine B / Nile Red). Particulars: 6 days; for EC (100% of TGF-beta3 activity): Homo sapiens, Mesenchymal stem cells, 144 h, concentration required to induce chondrogenesis equivalent to TGF-β3 10 ng/mL, read-out: Conc (nM) of 100% TGF-β3 activity. The procedure: The above synthesized compounds were screened using primary human mesenchymal stem cells (hMSCs) to determine their ability to induce chondrogenesis (process by which cartilage is developed).
Primary human mesenchymal stem cells (hMSCs) were purchased from Lonza (Walkersville, Md.) and expanded in Mesenchymal Stem Cell Growth Media (Lonza). Cells between passage 3 and 6 were used for the experiments.
Each compound was dissolved in DMSO as a 10 mM stock and used to prepare compound source plates. Serial dilution (1:3, 6-point dose-response curves from 2700 nM to 10 nM) and compound transfer was performed using the ECHO 550 (Labcyte, Sunnyvale, Calif.) into 96-well clear bottom assay plates (Greiner Bio-One) with appropriate DMSO backfill for a final DMSO concentration of 0.03%. hMSCs were plated at 20,000 cells/well in 250 μL/well Incomplete Chondrogenic Induction Medium (Lonza; DMEM, dexamethasone, ascorbate, insulin-transferrin-selenium [ITS supplement], gentamycin-amphotericin [GA-1000], sodium pyruvate, proline and L-glutamine). TGF-β3 (10 ng/mL) was used as a positive control for differentiation while negative control wells were treated with 75 nL DMSO for normalization and calculating EC50 values. Cells were incubated at 37° C. and 5% CO2 for 6 days. To image chondrogenic nodules, the cells were fixed using 4% formaldehyde (Electron Microscopy Sciences), and stained with 2 μg/mL Rhodamine B (Sigma-Aldrich) and 20 μM Nile Red (Sigma-Aldrich) [Johnson K., et. al, A Stem Cell-Based Approach to Cartilage Repair, Science, (2012), 336(6082). 717-721]. The nodules imaged (4 images per well at 4× magnification) by excitation at 531 nm and emission at 625 nm and quantified using the CellInsight CX5 (Thermo Scientific). Number of nodules in each well was normalized to the average of 3 DMSO treated wells on the same plate using Excel (Microsoft Inc.). The normalized averages (fold change over DMSO) of 3 replicate wells for each compound concentration were calculated. Due to solubility limitations of some of the compounds, curve fitting was incomplete leading to inaccurate EC50 determinations.
Using TGF-β3 as a positive control, the concentration of test compounds required to induce equivalent levels of chondrogenesis is reported. In addition, the maximum activity of each compound and the respective dose that each compound reached maximum chondrogenesis activity is reported.

In assay [2] the test system is Wnt activity (SW480 colon carcinoma cells stably expressing the Sp5-Luc reporter gene). As to the kind of experiment: Sp5-Luc reporter gene screening assay for Wnt activity. Particulars: Homo sapiens. The gist of the method:
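The SW480 cells carry a lentiviral luciferase reporter driven by a Sp5 promoter with eight TCF/LEF sites. They were plated at 10,000 cells/well in 10% FCS overnight, then pinned with 50 nl of 3-fold dilutions (10 mM top source concentration) into 50 μl.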
A general note: In a reporter assay the amount or activity of a reporter protein is the signal.

For assay [3], the system named is primary human fibroblasts derived from IPF patients (LL29 cells). As to the kind of experiment: Inhibition of the fibrotic process in TGF-β1 treated IPF patient fibroblasts (αSMA staining). Conditions: Fibroblast, 96 h, LL29 cells treated with TGF-β1 (20 ng/mL), 4 days, read-out: Inhibition of fibrosis EC50. The gist of the method:
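LL29 IPF lung fibroblasts in F12 with 1% FBS, compound (11-point, 10 μM to 1.87 nM, 0.1% DMSO) plus TGF-β1 20 ng/mL for 4 days at 37° C. αSMA-positive % of SYTOX-negative cells by immunofluorescence imaging, normalized to TGF-β1 wells; EC50 from non-linear regression of triplicates.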

For the molecule `CCCC(=O)Nc1cncc(-c2cnc3[nH]nc(-c4nc5c(-c6ccsc6)ccnc5[nH]4)c3c2)c1` [Compound 249, N-(5-(3-(7-(Thiophen-3-yl)-3H-imidazo[4,5-b]pyridin-2-yl)-1H-pyrazolo[3,4-b]pyridin-5-yl)pyridin-3-yl)butyramide], the EC (100% of TGF-beta3 activity) in assay [1] turned out to be 31.9 nM. Also, 0.0027 µM corresponded to half-maximal inhibition in assay [2] (IC50). In addition, in assay [3], the concentration for a half-maximal effect (EC50) amounted to 0.035 µM.
Consider `CCC(=O)Nc1cncc(-c2cnc3[nH]nc(-c4nc5c(N6CCCCC6)ccnc5[nH]4)c3c2)c1` [Compound 133, N-(5-(3-(7-(Piperidin-1-yl)-3H-imidazo[4,5-b]pyridin-2-yl)-1H-pyrazolo[3,4-b]pyridin-5-yl)pyridin-3-yl)propionamide], for which the “Max. Activity as % TGF-β3 activity” value in assay [1] (positive control TGF-β3 10 ng/mL, nodule number normalized to DMSO) was 300%. In assay [1], the EC (100% of TGF-beta3 activity) was determined as 317 nM. In assay [2], this molecule registered an IC50 of 0.0366 µM. In addition, in assay [3], the 50% effective concentration (EC50) was determined as 0.853 µM.
